Reference: paper PMC5017989, “Anti-inflammatory and acetylcholinesterase activity of extract, fractions and five compounds isolated from the leaves and twigs of Artemisia annua growing in Cameroon” (SpringerPlus, 2016)
Read-outs that look alike come from different tables or passages of the source. Marks after values point to notes of the source that are not given here.

Legend:
[1] = system: NO production in LPS-activated RAW 264.7 macrophages; experiment: Nitric oxide inhibitory activity in LPS-activated RAW 264.7 macrophages (Griess reagent); assay type: cell-based, murine; conditions: for inhibition at 0.5 µg/mL / inhibition at 2 µg/mL / inhibition at 5 µg/mL / inhibition at 20 µg/mL: Mus musculus, relative to LPS control; for inhibition at 0.5 µg/mL: RAW264.7, sample at 0.5 µg/mL; for inhibition at 2 µg/mL: RAW264.7, sample at 2 µg/mL; for inhibition at 5 µg/mL: RAW264.7, sample at 5 µg/mL; for inhibition at 20 µg/mL: RAW264.7, sample at 20 µg/mL; for NO: LPS-activated RAW 264.7
Experimental: Compounds were assayed for their potential to inhibit the NO production in macrophage cells.
(§1) The RAW 264.7 macrophages cell line was purchased from the American Type Culture Collection (ATCC TIB-71, Rockville, MD, USA) and cultured in a plastic culture flask in DMEM containing L-glutamine supplemented with 10 % FCS and 1 % PSF solution at 37 °C with 5 % CO2. Cells were seeded (10^4 per well) in 96 well-microtitre plate and activated LPS alone (control) or with samples at different concentrations. Quercetin was used as a positive control (Mu et al. [2001]).
The amount of nitric oxide released was determined by the Griess reagent as reported previously (Dzoyem et al. [2015]).

in vitro = assay type: cell-based, murine; conditions: mouse, MTT, cells with LPS only = 100 %, read-out: % Cell viability
Experimental: as §1
(§2) The number of viable cells was determined as previously described by Mosmann ([1983]) on the macrophage cells with few modifications. Briefly, the cells were topped up with 200 µL DMEM after removal of media. 30 µL of 15 mg/mL MTT were added to each well and cells were incubated at 37 °C with 5 % CO2. The medium was aspirated after 2 h, and the formazan salt formed was dissolved using DMSO. The absorbance was read at 570 nm on a BioTek Synergy microplate reader. Cell viability percentage was then calculated with reference to the control (cells with LPS only considered as 100 % viable).

acetylcholinesterase = acetylcholinesterase (Electrophorus electricus, UniProt O42275); experiment: biochemical
acetylcholinesterase, sequence (O42275 24-633): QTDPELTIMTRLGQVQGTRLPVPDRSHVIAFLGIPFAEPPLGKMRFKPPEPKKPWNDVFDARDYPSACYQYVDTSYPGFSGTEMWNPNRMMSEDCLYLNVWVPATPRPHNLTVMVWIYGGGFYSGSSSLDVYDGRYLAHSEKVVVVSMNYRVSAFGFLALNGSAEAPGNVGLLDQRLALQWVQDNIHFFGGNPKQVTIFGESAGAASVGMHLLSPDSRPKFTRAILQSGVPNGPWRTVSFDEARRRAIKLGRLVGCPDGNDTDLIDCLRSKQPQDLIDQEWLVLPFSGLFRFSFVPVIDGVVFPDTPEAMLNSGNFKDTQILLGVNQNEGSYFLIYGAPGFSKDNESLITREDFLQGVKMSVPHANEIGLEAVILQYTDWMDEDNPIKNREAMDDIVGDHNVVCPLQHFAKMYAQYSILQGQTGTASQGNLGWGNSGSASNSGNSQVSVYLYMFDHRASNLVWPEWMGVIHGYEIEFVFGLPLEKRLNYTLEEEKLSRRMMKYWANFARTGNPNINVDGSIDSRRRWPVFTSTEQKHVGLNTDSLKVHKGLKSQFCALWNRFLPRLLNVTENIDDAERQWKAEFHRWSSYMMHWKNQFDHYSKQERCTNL

RAW 264.7 macrophages = experiment: in vitro; assay type: cell-based, murine; conditions: sample at 20 µg/mL; MTT; cells with LPS only = 100 %
Experimental: as §1, §2

**Q.** With COc1ccc(-c2oc3cc(OC)c(OC)c(O)c3c(=O)c2O)cc1O [Compound 4, eupatin] as the compound, how does the inhibition at 0.5 µg/mL [1] read?
**A.** 83.4 ± 1.96%

**Q.** What about the inhibition at 2 µg/mL [1] of the same compound?
**A.** 97.9 ± 1.08%

**Q.** What about the inhibition at 5 µg/mL [1] of the same compound?
**A.** 97.8 ± 6.28%

**Q.** And the inhibition at 20 µg/mL [1]?
**A.** > 100%

**Q.** What about the “NO” value ([1]; sample at 0.5 µg/mL) of the same compound?
**A.** 1.27 ± 0.15 µM

**Q.** And the “NO” value ([1]; sample at 2 µg/mL)?
**A.** 0.16 ± 0.08 µM

**Q.** What about the “NO” value ([1]; sample at 5 µg/mL) of the same compound?
**A.** 0.17 ± 0.48 µM

**Q.** And the “NO” value ([1]; sample at 20 µg/mL)?
**A.** -0.20 ± 0.02 µM

**Q.** And the viability (in vitro; sample at 0.5 µg/mL)?
**A.** 79.3 ± 5.34%

**Q.** And the viability (in vitro; sample at 2 µg/mL)?
**A.** 48.5 ± 3.88%

**Q.** And the viability (in vitro; sample at 5 µg/mL)?
**A.** 17.6 ± 1.66%

**Q.** And the viability (in vitro; sample at 20 µg/mL)?
**A.** 7.49 ± 0.62%

**Q.** What about the “% Inhibition (acetylcholinesterase)” value (acetylcholinesterase; single concentration of 100 µg/mL (compounds and galantamine)) of the same compound?
**A.** 58.22 ± 2.73^b %

**Q.** What does the source list for COc1cc2ccc(=O)oc2cc1O [Compound 2, scopoletin]?
**A.** inhibition at 0.5 µg/mL [1]: 65.5 ± 4.41%; inhibition at 2 µg/mL [1]: 72 ± 4.22%; inhibition at 5 µg/mL [1]: 77.7 ± 2.09%; inhibition at 20 µg/mL [1]: 98.46 ± 0.79%; NO ([1]; sample at 0.5 µg/mL): 2.65 ± 0.34 µM; NO ([1]; sample at 2 µg/mL): 2.15 ± 0.32 µM; NO ([1]; sample at 5 µg/mL): 1.71 ± 0.16 µM; NO ([1]; sample at 20 µg/mL): 0.12 ± 0.06 µM; viability (in vitro; sample at 0.5 µg/mL): 80.3 ± 8.56%; viability (in vitro; sample at 2 µg/mL): 69.9 ± 9.23%; viability (in vitro; sample at 5 µg/mL): 88.5 ± 1.19%; viability (in vitro; sample at 20 µg/mL): 81.6 ± 4.35%; % Cell viability (RAW 264.7 macrophages): without obvious cytotoxic effect; inhibition at 100 µg/mL (acetylcholinesterase): 56.3 ± 4.92%

**Q.** Which inhibition at 0.5 µg/mL [1] does the source give for COc1cc(-c2oc3cc(OC)c(OC)c(O)c3c(=O)c2OC)ccc1O [Compound 3, chrysosplenetin] here?
**A.** 37.7 ± 2.88%

**Q.** What about the inhibition at 2 µg/mL [1] of the same compound?
**A.** 81.7 ± 1.04%

**Q.** And the inhibition at 5 µg/mL [1]?
**A.** 98.6 ± 1.67%

**Q.** And the inhibition at 20 µg/mL [1]?
**A.** > 100%

**Q.** What about the “NO” value ([1]; sample at 0.5 µg/mL) of the same compound?
**A.** 4.79 ± 0.22 µM

**Q.** And the “NO” value ([1]; sample at 2 µg/mL)?
**A.** 1.41 ± 0.08 µM

**Q.** What about the “NO” value ([1]; sample at 5 µg/mL) of the same compound?
**A.** 0.10 ± 0.13 µM

**Q.** And the “NO” value ([1]; sample at 20 µg/mL)?
**A.** -0.32 ± 0.02 µM

**Q.** What about the viability (in vitro; sample at 0.5 µg/mL) of the same compound?
**A.** 95.6 ± 4.88%

**Q.** And the viability (in vitro; sample at 2 µg/mL)?
**A.** 67.4 ± 3.74%

**Q.** What about the viability (in vitro; sample at 5 µg/mL) of the same compound?
**A.** 28.5 ± 2.18%

**Q.** And the viability (in vitro; sample at 20 µg/mL)?
**A.** 15.9 ± 2.37%

**Q.** And the inhibition at 100 µg/mL (acetylcholinesterase)?
**A.** 80 ± 9.67%

**Q.** What does the source list for O=c1c(O)c(-c2ccc(O)c(O)c2)oc2cc(O)cc(O)c12 [Quercetin, reference compound]?
**A.** inhibition at 0.5 µg/mL [1]: 34.9 ± 2.76%; inhibition at 2 µg/mL [1]: 43 ± 3.89%; inhibition at 5 µg/mL [1]: 85.7 ± 2.34%; inhibition at 20 µg/mL [1]: 103 ± 1.08%; NO ([1]; sample at 0.5 µg/mL): 5.01 ± 1.67 µM; NO ([1]; sample at 2 µg/mL): 4.38 ± 0.30 µM; NO ([1]; sample at 5 µg/mL): 1.10 ± 0.18 µM; viability (in vitro; sample at 0.5 µg/mL): 105 ± 6.13%; viability (in vitro; sample at 2 µg/mL): 98.3 ± 5.17%; viability (in vitro; sample at 5 µg/mL): 76.2 ± 2.06%; viability (in vitro; sample at 20 µg/mL): 23.1 ± 5.37%

**Q.** Which results are given for C[C@@H]1CC[C@H]2[C@@H](C)C(=O)O[C@@H]3O[C@@]4(C)CC[C@@H]1[C@]32OO4 [Compound 1, artemisinin]?
**A.** inhibition at 0.5 µg/mL [1]: 56.3 ± 14.4%; inhibition at 2 µg/mL [1]: 83.1 ± 9.72%; inhibition at 5 µg/mL [1]: 89.1 ± 7.05%; inhibition at 20 µg/mL [1]: 99.2 ± 2.16%; NO ([1]; sample at 0.5 µg/mL): 3.36 ± 1.10 µM; NO ([1]; sample at 2 µg/mL): 1.30 ± 0.75 µM; NO ([1]; sample at 5 µg/mL): 0.84 ± 0.54 µM; NO ([1]; sample at 20 µg/mL): 0.07 ± 0.17 µM; viability (in vitro; sample at 0.5 µg/mL): 110 ± 6.22%; viability (in vitro; sample at 2 µg/mL): 104 ± 9.66%; viability (in vitro; sample at 5 µg/mL): 91.3 ± 2.2%; viability (in vitro; sample at 20 µg/mL): 80.9 ± 1.71%; % Cell viability (RAW 264.7 macrophages): without obvious cytotoxic effect; inhibition at 100 µg/mL (acetylcholinesterase): 71.7 ± 7.9%
